The target of data set [1] is T1, Solute carrier family 22 member 1 (Mus musculus, UniProt O08966).
T1 sequence (O08966 whole entry): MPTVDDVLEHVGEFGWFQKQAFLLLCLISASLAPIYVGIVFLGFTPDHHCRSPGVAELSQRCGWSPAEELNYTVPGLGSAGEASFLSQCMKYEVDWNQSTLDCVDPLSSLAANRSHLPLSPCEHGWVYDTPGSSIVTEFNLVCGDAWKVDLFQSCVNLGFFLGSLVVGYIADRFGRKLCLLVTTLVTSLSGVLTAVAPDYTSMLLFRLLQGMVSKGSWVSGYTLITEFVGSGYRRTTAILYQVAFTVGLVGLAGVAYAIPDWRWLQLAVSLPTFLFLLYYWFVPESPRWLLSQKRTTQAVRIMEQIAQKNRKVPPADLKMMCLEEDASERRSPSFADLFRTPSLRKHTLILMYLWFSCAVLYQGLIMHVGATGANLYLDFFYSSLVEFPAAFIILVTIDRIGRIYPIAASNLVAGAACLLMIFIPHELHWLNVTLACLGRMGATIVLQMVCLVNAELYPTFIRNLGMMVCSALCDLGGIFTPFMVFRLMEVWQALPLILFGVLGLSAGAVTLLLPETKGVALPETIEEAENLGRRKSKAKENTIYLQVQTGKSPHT
Description: (§1) TP_TRANSPORTER: inhibition of MPP+ uptake in Xenopus laevis oocytes. It counts as functional, cell-based, Oocyte.

Data set [2] addresses T2, Solute carrier family 22 member 1 (Rattus norvegicus, UniProt Q63089).
T2 sequence (Q63089 whole entry): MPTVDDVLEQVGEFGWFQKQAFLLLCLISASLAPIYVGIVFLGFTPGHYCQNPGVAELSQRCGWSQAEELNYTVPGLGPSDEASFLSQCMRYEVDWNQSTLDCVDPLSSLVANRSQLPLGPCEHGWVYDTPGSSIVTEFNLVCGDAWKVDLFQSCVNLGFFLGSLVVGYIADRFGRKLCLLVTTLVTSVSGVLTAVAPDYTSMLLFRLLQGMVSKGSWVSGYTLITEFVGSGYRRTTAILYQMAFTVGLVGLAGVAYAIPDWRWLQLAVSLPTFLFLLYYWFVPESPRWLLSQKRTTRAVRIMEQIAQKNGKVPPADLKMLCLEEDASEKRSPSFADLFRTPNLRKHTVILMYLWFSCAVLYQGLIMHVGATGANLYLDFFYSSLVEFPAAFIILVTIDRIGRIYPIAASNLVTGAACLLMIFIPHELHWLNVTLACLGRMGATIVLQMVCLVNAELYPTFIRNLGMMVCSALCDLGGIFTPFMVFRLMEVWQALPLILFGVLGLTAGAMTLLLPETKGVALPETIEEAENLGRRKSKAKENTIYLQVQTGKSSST
The description is as §1. The data set is classed as functional, cell-based, Oocyte.

Data set [3] deals with T3, Solute carrier family 22 member 1 (Homo sapiens, UniProt O15245).
T3 sequence (O15245 whole entry): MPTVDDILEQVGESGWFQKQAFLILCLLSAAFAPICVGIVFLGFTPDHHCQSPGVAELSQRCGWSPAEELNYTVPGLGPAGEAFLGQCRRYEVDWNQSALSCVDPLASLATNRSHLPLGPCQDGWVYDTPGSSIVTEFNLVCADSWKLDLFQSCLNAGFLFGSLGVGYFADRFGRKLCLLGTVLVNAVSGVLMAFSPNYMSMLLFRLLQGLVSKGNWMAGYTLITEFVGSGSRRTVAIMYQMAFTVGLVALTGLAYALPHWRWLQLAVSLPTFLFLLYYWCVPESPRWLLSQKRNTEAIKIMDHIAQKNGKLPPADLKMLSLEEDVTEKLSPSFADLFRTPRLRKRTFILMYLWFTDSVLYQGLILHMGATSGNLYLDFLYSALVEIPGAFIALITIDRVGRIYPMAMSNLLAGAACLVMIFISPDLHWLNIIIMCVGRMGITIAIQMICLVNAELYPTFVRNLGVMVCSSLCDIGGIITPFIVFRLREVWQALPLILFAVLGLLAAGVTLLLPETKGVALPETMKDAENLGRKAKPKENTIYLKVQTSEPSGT
The data set is described as §1. It counts as functional, cell-based, Oocyte.

Data set [4] deals with T1, Solute carrier family 22 member 1. Description: (§2) TP_TRANSPORTER: trans-stimulation of MPP+ uptake (MPP+: 1 uM, TPeA: 200 uM) in Xenopus laevis oocytes. The data set is classed as functional, cell-based. The following applies: oocyte.
The target of data set [5] is T2, Solute carrier family 22 member 1. Described as §2. The data set is classed as functional, cell-based. Conditions: oocyte.
Data set [6] addresses T3, Solute carrier family 22 member 1. Described as §2. It counts as functional, cell-based. Conditions: oocyte.

By Ki is commonly meant a dissociation constant, usually derived from enzyme kinetics or from competition with a known ligand. `CCCC[N+](CCCC)(CCCC)CCCC` [TETRABUTHYLAMMONIUM]: the inhibition constant (Ki) in data set [1] was found to be 7.3 µM; in data set [2], 17 µM; in data set [3], 29.6 µM.
With `C[N+](C)(C)C` [TETRAMETHYLAMMONIUM], the figures for the Ki in data set [1] and in data set [3] were 2040 µM and 12400 µM, respectively.
`CCCCC[N+](CCCCC)(CCCCC)CCCCC` [TETRAPENTYLAMMONIUM]: the Activity entry in data set [4] is “inhibitor [trans-inhibited: (at a rough estimate) 30 % of control]”; in data set [5], “inhibitor [trans-inhibited: (at a rough estimate) 80 % of control]”; in data set [6], “is not an inhibitor [-]”.
Turning to `CCC[N+](CCC)(CCC)CCC` [TETRAPROPYLAMMONIUM], the inhibition constant Ki in data set [1] stood at 19.8 µM; in data set [2], 21 µM; in data set [3], 102 µM.
For `CC[N+](CC)(CC)CC` [TETRYLAMMONIUM], the Ki in data set [1] came to 128 µM; in data set [2], 100 µM; in data set [3], 158 µM.

The values are drawn from ChEMBL document CHEMBL2074488, “Kinetic and selectivity differences between rodent, rabbit, and human organic cation transporters (OCT1)” (J Pharmacol Exp Ther, 2000).
